Assays:
[1] = system: Aptamer 1 (Apt1) (RNA, aptamer) CCAUGUAAGCGCGGUACUCUUACGUGA; assay: electrochemical impedance (EIS); settings: 0.1 M KCl, 3 mM MgCl2; 100 µM; response about 15 times lower than with NH4+
[2] = system: Aptamer 2 (Apt2) (RNA, aptamer) UCGCGUCUAGCCCAUUGAUAGGCCCGA; assay: electrochemical impedance (EIS); settings: 0.1 M KCl, 3 mM MgCl2; 100 µM; response about 15 times lower than with NH4+
[3] = system: Aptamer 3 (Apt3) (RNA, aptamer) UCCACGUGGUGCCAUACUCCGGCGUGG; assay: electrochemical impedance (EIS); settings: 0.1 M KCl, 3 mM MgCl2; 100 µM; response about 15 times lower than with NH4+
[4] = system: Control (random sequence) (RNA, other) CUGAAGGCAGUCCGGUGCCCGGCCGGG; assay: electrochemical impedance (EIS); settings: 0.1 M KCl, 3 mM MgCl2; PBS, pH about 7, 15 min incubation; tested up to 500 mM
[5] = system: Aptamer 1 (Apt1) (RNA, aptamer) CCAUGUAAGCGCGGUACUCUUACGUGA; assay: electrochemical impedance (EIS), Langmuir-Hill fit; settings: 0.1 M KCl, 3 mM MgCl2; PBS, pH about 7, 1 mM [Fe(CN)6]3-/4-, 15 min incubation
[6] = system: Aptamer 2 (Apt2) (RNA, aptamer) UCGCGUCUAGCCCAUUGAUAGGCCCGA; assay: electrochemical impedance (EIS), Langmuir-Hill fit; settings: 0.1 M KCl, 3 mM MgCl2; PBS, pH about 7, 1 mM [Fe(CN)6]3-/4-, 15 min incubation
[7] = system: Aptamer 3 (Apt3) (RNA, aptamer) UCCACGUGGUGCCAUACUCCGGCGUGG; assay: electrochemical impedance (EIS), Langmuir-Hill fit; settings: 0.1 M KCl, 3 mM MgCl2; PBS, pH about 7, 1 mM [Fe(CN)6]3-/4-, 15 min incubation
[8] = system: Aptamer 4 (Apt4) (RNA, aptamer) CCUCUCAGGCUUGUACUGCCACGAGGA; assay: electrochemical impedance (EIS), Langmuir-Hill fit; settings: 0.1 M KCl, 3 mM MgCl2; PBS, pH about 7, 1 mM [Fe(CN)6]3-/4-, 15 min incubation; decimal comma as printed
[9] = system: Aptamer 5 (Apt5) (RNA, aptamer) GCCCUGGGCCGCUCAUUCCCUCUGGCU; assay: electrochemical impedance (EIS), Langmuir-Hill fit; settings: 0.1 M KCl, 3 mM MgCl2; PBS, pH about 7, 1 mM [Fe(CN)6]3-/4-, 15 min incubation

SMILES | binding [1] | binding [2] | binding [3] | binding [4] | Kd [5] [mM] | Kd [6] [mM] | Kd [7] [mM] | Kd [8] | Kd [9] [mM]
CN(C)C | weak | weak | weak | – | – | – | – | – | –
CNC | weak | weak | weak | – | – | – | – | – | –
N | – | – | – | no | 36.59 | 16.11 | 131 | 6,6 mM | 50
